The record followed here is patent publication US5834461A, “Tricyclic benzazepine vasopressin antagonists” (American Cyanamid Company, priority 1997, dated 1998).

Each structure is given as a SMILES string.

The target in assay [1] is T1, human V2 vasopressin receptor (Homo sapiens, UniProt P30518).
T1 construct: expressed in transfected cells; host or cells: mouse fibroblast cell line LV-2
The assay can be described thus: Binding to Membranes of Mouse Fibroblast Cell Line (LV-2) Transfected with the cDNA Expressing the Human V2 Vasopressin Receptor. Particulars: LV-2 cells. The method, then: Flasks of 175 ml capacity, containing attached cells grown to confluence, are cleared of culture medium by aspiration. The flasks containing the attached cells are rinsed with 2×5 ml of phosphate buffered saline (PBS) and the liquid aspirated off each time. Finally, 5 ml of an enzyme free dissociation Hank's based solution (Specialty Media, Inc., Lafayette, N.J.) is added and the flasks are left undisturbed for 2 min. The content of all flasks is poured into a centrifuge tube and the cells pelleted at 300×g for 15 min. The Hank's based solution is aspirated off and the cells homogenized with a polytron at setting #6 for 10 sec in 10.0 mM Tris.HCl buffer, pH 7.4 containing 0.25M sucrose and 1.0 mM EDTA. The homogenate is centrifuged at 1500×g for 10 min to remove ghost membranes. The supernatant fluid is centrifuged at 100,000×g for 60 min to pellet the receptor protein. Upon completion, the pellet is resuspended in a small volume of 50.0 mM Tris.HCl buffer, pH 7.4. The protein content is determined by the Lowry method and the receptor membranes are suspended in 50.0 mM Tris.HCl buffer containing 0.1 mM phenylmethylsulfonylfluoride (PMSF) and 0.2% bovine serum albumin (BSA) to give 2.5 mg receptor protein per ml of suspension.
For binding experiments, the following is added in μl volume to wells of a 96 well format of a microtiter plate: 100.0 μl of 100.0 mM Tris.HCl buffer containing 0.2% heat inactivated BSA, 10.0 mM MgCl2 and a mixture of protease inhibitors: leupeptin, 1.0 mg %; aprotinin, 1.0 mg %; 1,10-phenanthroline, 2.0 mg %; trypsin inhibitor, 10.0 mg % and 0.1 mM PMSF., 20.0 μl of [^3 H] Arginine^8, vasopressin (S.A. 75.0 Ci/mmole) at 0.8 nM and the reaction initiated by the addition of 80.0 μl of tissue membranes ([…]).
The plates are left undisturbed on the bench top for 120 min to reach equilibrium. Non specific binding is assessed in the presence of 1.0 μM of unlabeled ligand, added in 20 μl volume. For test compounds, these are solubilized in 50% dimethylsulfoxide (DMSO) and added in 20.0 μl volume to a final incubation volume of 200 μl. Upon completion of binding, the content of each well is filtered off, using a Brandel® cell Harvester (Gaithersburg, Md.). The radioactivity trapped on the filter disk by the ligand-receptor complex is assessed by liquid scintillation counting in a Packard LS Counter, with an efficiency of 65% for tritium.

Assay [2] has as its target T2, oxytocin receptors (rat uterus membranes) (Rattus norvegicus, UniProt P70536).
T2 construct: The resulting pellet containing the oxytocin receptors is resuspended; from tissue; host or cells: uterus membranes of DES-treated female Sprague-Dawley rats
T2 sequence (P70536 1-388): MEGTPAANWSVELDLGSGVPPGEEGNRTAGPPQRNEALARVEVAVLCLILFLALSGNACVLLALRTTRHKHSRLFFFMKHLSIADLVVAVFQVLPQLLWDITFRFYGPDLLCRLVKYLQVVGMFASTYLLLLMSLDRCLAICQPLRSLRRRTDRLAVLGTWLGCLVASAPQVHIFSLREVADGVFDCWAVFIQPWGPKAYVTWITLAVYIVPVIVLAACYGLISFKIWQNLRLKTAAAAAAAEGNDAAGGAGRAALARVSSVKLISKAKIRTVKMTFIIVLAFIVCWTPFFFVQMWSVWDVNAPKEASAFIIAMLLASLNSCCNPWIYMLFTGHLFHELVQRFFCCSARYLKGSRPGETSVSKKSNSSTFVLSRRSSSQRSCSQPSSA
The assay can be described thus: Oxytocin Receptor Binding. On the set-up: species or system female Sprague-Dawley rats. The method, then: Female Sprague-Dawley rats weighing approximately 200-250 g are injected intramuscularly (i.m.) with 0.3 mg/kg of body weight of diethylstilbestrol (DES). The rats are sacrificed 18 hours later under pentobarbital anesthesia. The uteri are dissected out, cleaned of fat and connective tissues and rinsed in 50 ml of normal saline. The tissue pooled from six rats is homogenized in 50 ml of […] Tris.HCl, containing 0.5 mM dithiothreitol and 1.0 mM EDTA, adjusted to pH 7.4, using a polytron at setting 6 with three passes of 10 sec each. The homogenate is passed through two (2) layers of cheesecloth and the filtrate centrifuged at 1000×g for 10 min. The clear supernatant is removed and recentrifuged at 165,000×g for 30 min. The resulting pellet containing the oxytocin receptors is resuspended in 50.0 mM Tris.HCl containing 5.0 mM MgCl2 at pH 7.4, to give a protein concentration of 2.5 mg/ml of tissue suspension. This preparation is used in subsequent binding assays with [^3 H]Oxytocin.
Binding of 3,5-[^3 H]Oxytocin ([^3 H]OT) to its receptors is done in microtiter plates using [^3 H]OT, at various concentrations, in an assay buffer of 50.0 mM Tris.HCl, pH 7.4 and containing 5.0 mM MgCl2, and a mixture of protease inhibitors: BSA, 0.1 mg; aprotinin, 1.0 mg; 1,10-phenanthroline, 2.0 mg; […], 10.0 mg; and PMSF, 0.3 mg per 100 ml of buffer solution. Non-specific binding is determined in the presence of 1.0 uM unlabeled OT. The binding reaction is terminated after 60 min., at 22° C., by rapid filtration through glass fiber filters using a Brandel® cell harvester (Biomedical Research and Development Laboratories, Inc., Gaithersburg, Md.). Competition experiments are conducted at equilibrium using 1.0 nM [^3 H]OT and varying the concentration of the displacing agents. The concentrations of agent displacing 50% of [^3 H]OT at its sites (IC50) are calculated by a computer assisted LUNDON-2 program (LUNDON SOFTWARE INC., Ohio, USA).

T1 sequence (P30518 whole entry): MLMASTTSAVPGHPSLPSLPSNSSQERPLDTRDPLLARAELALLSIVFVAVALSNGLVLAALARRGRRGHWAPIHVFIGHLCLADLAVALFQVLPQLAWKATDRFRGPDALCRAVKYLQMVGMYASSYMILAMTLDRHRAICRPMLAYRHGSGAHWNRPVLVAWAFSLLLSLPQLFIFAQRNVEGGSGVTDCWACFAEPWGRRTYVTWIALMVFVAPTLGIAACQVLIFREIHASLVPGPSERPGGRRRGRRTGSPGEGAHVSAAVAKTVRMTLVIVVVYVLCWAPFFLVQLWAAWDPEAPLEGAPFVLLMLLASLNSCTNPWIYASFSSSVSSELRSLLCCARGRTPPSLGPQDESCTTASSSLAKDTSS

For the compound `Cc1nc2c(s1)CCN(C(=O)c1ccc(NC(=O)c3ccc(Cl)cc3Cl)cc1)c1ccccc1-2` [Example 455, N-[4-(4,5-Dihydro-2-methyl-6H-thiazolo[5,4-d][1]-benzazepin-6-yl)carbonyl1phenyl]-2,4-dichlorobenzamide], the half-maximal inhibitory concentration (IC50) in assay [1] is 100 nM; in assay [2] (second part of Table V), 1100 nM. The compound also came in with an inhibition at 10 µM in assay [2] of 88%. Take `Cc1ccccc1C(=O)Nc1c(C)cc(C(=O)N2Cc3ccccc3Cc3ccccc32)cc1C` [Example 258, N-[4-[(6,11-Dihydro-5H-dibenz[b,e]azepin-5-yl)-carbonyl]-2,6-dimethylphenyl]-2-methylbenzamide]: the inhibition at 10 µM in assay [2] was determined as 18%. With `COc1cc(C(=O)N2Cc3ccccc3Cc3ccccc32)ccc1NC(=O)c1ccccc1C` [Example 257, N-[4-[(6,11-Dihydro-5H-dibenz[b,e]azepin-5-yl)-carbonyl]-2-methoxyphenyl]-2-methylbenzamide], the results for the IC50 in assay [1] and in assay [2] (first part of Table V) were 20 nM and 189 nM, respectively. Further, testing at 10 µM in assay [2] gave an inhibition of 97%. For `Cc1ccc(F)cc1C(=O)Nc1ccc(C(=O)N2CCc3c[nH]nc3-c3ccccc32)c(Cl)c1` [Example 581], the figures for the half-inhibitory concentration (IC50) in assay [1] and in assay [2] (second part of Table V) were 2.2 nM and 475 nM, respectively. In assay [2], this compound showed an inhibition at 10 µM of 95%. With `O=C(Nc1ccc(C(=O)N2Cc3ccccc3Sc3ccccc32)cc1)c1ccccc1Cl` [Example 448, N-[4-[(Dibenz[b,f][1,4]thiazepin-10(11H)yl)-carbonyl]phenyl]-2-chlorobenzamide], in assay [2], 10 µM produced 39% inhibition. The same measure, in the same setting: the same measure for `Cc1cc(C(=O)N2Cc3ccccc3Cc3ccccc32)cc(C)c1NC(=O)c1ccc(Cl)cc1Cl` [Example 259, N-[4-[(6,11-Dihydro-5H-dibenz[b,e]azepin-5-yl)-carbonyl]-2,6-dimethylphenyl]-2 4-dichlorobenzamide]: 7%. In turn, `O=C(Nc1ccc(C(=O)N2Cc3ccccc3Cc3ccccc32)cc1)c1cccc(Cl)c1Cl` [Example 253, N-[4-[(6,11-Dihydro-5H-dibenz[b,e]azepin-5-yl)-carbonyl]phenyl]-2,3-dichlorobenzamide] yielded an inhibition at 10 µM in assay [2] of 77%. Further, in assay [2] (first part of Table V), the half-maximal inhibitory concentration (IC50) came out at 3100 nM. For `O=C(Nc1ccc(C(=O)N2Cc3ccccc3Cc3ccccc32)cc1)C1CC=CCC1` (stereo not drawn) [Example 255, N-[4-[(6,11-Dihydro-5H-dibenz[b,e]azepin-5-yl)-carbonyl]phenyl]-3-cyclohexene-1-carboxamide], in that order: 99% and 460 nM. With `Cc1ccccc1C(=O)Nc1ccc(C(=O)N2Cc3ccccc3Cc3ccccc32)c(Cl)c1` [Example 260, N-[4-[(6,11-Dihydro-5H-dibenz[b,e]azepin-5-yl)-carbonyl]-3-chlorophenyl]-2-methylbenzamide], the inhibition at 10 µM in assay [2] came out at 44%. Still for that read-out and setting: the same measure for `O=C(Nc1ccc(C(=O)N2Cc3ccccc3Cc3ccccc32)cc1)c1cc(Cl)cc(Cl)c1` [Example 251, N-(4-[(6,11-Dihydro-5H-dibenz[b,e]azepin-5-yl)-carbonyl]phenyl]-3,5-dichlorobenzamide]: 77%. For the compound `COc1cc(C(=O)N2Cc3ccccc3Cc3ccccc32)ccc1NC(=O)c1cc(F)ccc1C` [Example 261, N-[4-[(6,11-Dihydro-5H-dibenz[b,e]azepin-5-yl)-carbonyl]-2-methoxyphenyl]-2-methyl-5-fluorobenzamide], the IC50 in assay [1] was 16 nM; in assay [2] (first part of Table V), 210 nM. In assay [2], this compound gave an inhibition at 10 µM of 97%. For the compound `Cc1ccccc1C(=O)Nc1ccc(C(=O)N2Cc3ccccc3Cc3ccccc32)cc1` [Example 2, N-[4-[(6,11-Dihydro-5H-dibenz[b,e]azepin-5-yl)carbonyl]phenyl]-2-methylbenzamide], testing at 10 µM in assay [2] gave an inhibition of 73%. The same compound yielded an IC50 in assay [2] (first part of Table V) of 2900 nM. For `Cc1ccccc1C(=O)Nc1ccc(C(=O)N2Cc3ccccc3-c3ccccc32)cc1` [Example 5, 2-Methyl-N-[4-[(5(6H)-phenanthridinyl)carbonyl]phenyl]benzamide], in that order: 90% and 2000 nM. For the compound `Cc1nc2c(s1)CCN(C(=O)c1ccc(NC(=O)c3cc(F)ccc3C)cc1)c1ccccc1-2` [Example 534], the IC50 in assay [1] turned out to be 73 nM; in assay [2] (second part of Table V), 940 nM. The compound also had an inhibition at 10 µM in assay [2] of 86%. Regarding `Cc1ccc(F)cc1C(=O)Nc1ccc(C(=O)N2CCc3c[nH]nc3-c3ccccc32)cc1` [Example 584, N-[4-[(4.5-Dihydropyrazolo[4,3-d][1]benzazepin-6(2H)-yl)carbonyl]phenyl]-5-fluoro-2-methylbenzamide], at 10 µM the inhibition in assay [2] was 100%. The half-inhibitory concentration (IC50) in assay [2] (second part of Table V) stood at 170 nM. As for `COc1cc(C(=O)N2Cc3ccccc3Cc3ccccc32)ccc1NC(=O)c1ccc(Cl)cc1Cl` [Example 263, N-[4-[(6,11-Dihydro-5H-dibenz[b,e]azepin-5-yl)-carbonyl]-2-methoxyphenyl]-2,4-dichlorobenzamide], the IC50 in assay [1] amounted to 47 nM; in assay [2] (first part of Table V), 260 nM. In addition, testing at 10 µM in assay [2] gave an inhibition of 94%. `Cc1ccccc1C(=O)N(CN(C)C)c1ccc(C(=O)N2Cc3ccccc3Cc3ccccc32)cc1` [Example 267, N-[4-[(6,11-Dihydro-5H-dibenz[b,e]azepin-5-yl)-carbonyl]phenyl]-N-[(dimethylamino)methyl]-2-methylbenzamide] showed an inhibition at 10 µM in assay [2] of 89%. Also, the IC50 in assay [2] (first part of Table V) came out at 1100 nM. Consider `Cc1ccccc1C(=O)Nc1ccc(C(=O)N2CCc3cn(C)nc3-c3ccccc32)cc1` [Example 379, N-[4-[(4,5-Dihydro-2-methylpyrazolo[4,3-d][1]-benzazepin-6(2H)-yl)carbonyl]phenyl]-2-methylbenzamide], for which at 10 µM the inhibition in assay [2] was 96%. Further, the IC50 in assay [2] (first part of Table V) stood at 810 nM. Regarding `CC(C)COc1ccc([N+](=O)[O-])cc1C(=O)Nc1ccc(C(=O)N2Cc3ccccc3Cc3ccccc32)cc1` [Example 453], the 50% inhibitory concentration (IC50) in assay [2] (second part of Table V) was determined as 3300 nM. For the compound `Cc1ncc2c(n1)-c1ccccc1N(C(=O)c1ccc(NC(=O)c3ccccc3C)cc1)CC2` [Example 416, N-[4-[(6,7-Dihydro-2-methyl-5H-pyrimido[5,4-d][1]-benzazepin-7-yl)carbonyl]phenyl]-2-methylbenzamide], the inhibition at 10 µM in assay [2] came to 19%.
